This assay concerns the target T1, NΔ47-TPH2-R (Homo sapiens, UniProt Q8IWU9).
T1 sequence (Q8IWU9 48-145): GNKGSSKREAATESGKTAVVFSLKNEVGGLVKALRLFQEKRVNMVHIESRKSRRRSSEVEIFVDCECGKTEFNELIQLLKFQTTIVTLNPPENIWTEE
As to the kind of experiment: protein-observed NMR titration, 1H-15N HSQC, 2D line-shape analysis. In kind it is binding.

Kd data for one compound are collected here from publication doi:10.1101/2022.09.20.508773v1 (biorxiv, 2022).

The Kd is the concentration at which binding is half-saturated.

Structures are written as SMILES.

The compound `N[C@@H](Cc1ccccc1)C(=O)O` [L-Phe] had a Kd of 40.8 ± 0.8 µM.
